{"source": "patent US9206236B2", "about": "“Peptides for treating cancer” (Gene Signal International SA, priority 2010, dated 2015)", "key": {"[1]": {"tested_on": "human microvascular endothelial cells (HMEC)", "test": "In vitro angiogenesis assay (Matrigel tube formation)", "type": "cell-based", "settings": "500 μg/ml final concentration of peptide, images at 18 h", "description": "Angiogenesis of human microvascular endothelial cells (HMEC) was induced in vitro using a Matrigel assay described by Al-Mahmood et al (2009, JPET, 2009; 58:933). This method is based on the differentiation of endothelial cells to form capillary structures on a Matrigel Matrix. Matrigel is prepared the Engelbreth-Holm-Swarm (EHS) mouse tumor, which represents a complex mixture of basement membrane proteins including type IV collagen, entactin, proteo-heparan sulfate and other growth factors.\nBriefly, 250 μl of Matrigel were transferred to each well of a 24-well culture plate and incubated at 37° C. for 30 min to allow for the matrix solution to solidify. HMEC grown in complete growth medium EGM-2MV were harvested by trypsin, suspended in the same growth medium and 500 μl containing 70 000 cells were added on top of the solidified Matrigel in each well and in the presence or absence of peptide. Cells were maintained in a humidified atmosphere air containing 5% CO2 at 37° C. for 18-24 hrs. Endothelial tube formation was observed and photographed under an inverted light microscope.\nThe designed tyrosine phosphorylated and non phosphorylated peptides were tested for their influence onto the in vitro angiogenesis. The results of the in vitro angiogenesis assay were presented in FIG. 1, using HMEC and 500 μg/ml final concentration of each peptide."}, "[2]": {"molecular_target": "T1, recruitment of the regulatory subunit (p85) of the enzyme PI-3K by IRS-1 (Homo sapiens, UniProt P27986)", "T1 construct": "endogenous in cells; host or cells: human microvascular endothelial cells (HMEC)", "T1 sequence (P27986 whole entry)": "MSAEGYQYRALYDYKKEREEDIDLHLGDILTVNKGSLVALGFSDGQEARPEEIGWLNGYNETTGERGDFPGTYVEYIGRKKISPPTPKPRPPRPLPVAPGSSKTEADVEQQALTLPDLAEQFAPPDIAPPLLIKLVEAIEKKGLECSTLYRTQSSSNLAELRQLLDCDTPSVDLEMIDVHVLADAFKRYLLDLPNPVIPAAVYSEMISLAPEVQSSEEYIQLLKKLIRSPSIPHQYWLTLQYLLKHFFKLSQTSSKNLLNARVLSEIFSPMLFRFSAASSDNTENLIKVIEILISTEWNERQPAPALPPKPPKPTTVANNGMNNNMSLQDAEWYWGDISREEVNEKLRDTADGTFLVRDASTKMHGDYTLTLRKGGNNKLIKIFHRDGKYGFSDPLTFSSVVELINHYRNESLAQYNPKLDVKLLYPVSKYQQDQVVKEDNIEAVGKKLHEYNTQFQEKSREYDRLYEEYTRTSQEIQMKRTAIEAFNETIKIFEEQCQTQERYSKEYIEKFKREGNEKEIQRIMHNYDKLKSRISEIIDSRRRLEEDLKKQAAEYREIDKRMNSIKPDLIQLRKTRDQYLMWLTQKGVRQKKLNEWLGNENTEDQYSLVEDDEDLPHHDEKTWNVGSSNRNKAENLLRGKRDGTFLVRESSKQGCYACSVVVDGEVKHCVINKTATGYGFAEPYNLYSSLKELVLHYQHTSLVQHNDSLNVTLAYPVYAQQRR", "test": "Recruitment of p85 of PI-3K by IRS-1 (IRS-1 immunoprecipitation, anti-p85 immunoblot) in HMEC", "type": "cell-based", "settings": "final concentration of peptide 500 μg/ml", "description": "(§1) Human EC grown in EGM-2MV (80% confluence) were incubated with the peptides of the invention or vehicle for the indicated time, washed three times in cold PBS and directly lysed in 2 ml of ice-cold lysis buffer (10 mM Tris pH 7.5, 150 mM NaCl, 1 mM PMSF, 0.5 μg/ml leupeptin, 1 μg/ml pepstatin A, and 1 μg/ml aprotinin) by incubation for 30 min at 4° C. Cell lysate were spun at […] for 10 min, insoluble materials were discarded, and protein contents measured by Bradford assay of supernatants were adjusted. Cell lysate (1 ml) was precleared with 25 μl of protein G-plus agarose beads (Santa Cruz) for 30 min, and proteins were then immunoprecipitated by adding 2 μg of the indicated antibody and incubated for 1 hr. The immunocomplex was pulled down with protein G-plus agarose beads and the beads were washed three times with lysis buffer. The immunoprecipitates were separated by NuPAGE® 4-12% Bis-Tris gel electrophoresis under reducing conditions, transferred to PVDF membrane (Novex System, Invitrogen), and the membrane was blocked with 5% (w/v) non-fat milk in TBS containing 0.1% v/v Tween-20 for 1 hr.\nAs it is widely admitted that the tyrosine phosphorylation of IRS-1 leads to its association with the regulatory subunit (p85) of the enzyme PI-3K, and this event lead to important increases in the enzymatic activity of this later, we have investigated the influence of the tyrosine phosphorylated and non phosphorylated peptides onto the recruitment of the regulatory subunit (p85) of the enzyme PI-3K by IRS-1. For that, human microvascular endothelial cells (HMEC) were incubated with the tyrosine phosphorylated and non phosphorylated peptides (final concentration of peptide 500 μg/ml) followed by cells lysis and immuoprecipitation of the protein IRS-1. The immunoprecipitates were then resolved in SDS-PAGE, proteins were transferred to membranes, and the membranes were immunoblotted with an anti-p85 PI3K monoclonal antibody."}, "mTOR": {"tested_on": "mTOR", "test": "mTOR status in HMEC after incubation with peptides (anti-mTor antibody Ser2448)", "type": "cell-based, human", "description": "as §1\nThe status of mTOR in the HMEC following incubation with peptides GS-0 and GS-1 was investigated."}, "NCI-H460 tumors": {"tested_on": "NCI-H460 tumors", "test": "NCI-H460 tumor xenograft in nude mice, tumor volume (Example 2)", "type": "in vivo", "description": "H460 cell line has cytology compatible with human Non-Small Cell Lung Cancer (NSCL). Cells were grown in MEM medium containing 10% FCS at 37° C., 5% CO2 humidified atmosphere. The absence of mycoplasms was confirmed by using the PCR Mycoplasma Detection kit (Takara). All experiments were reviewed by the Genopole's institutional animal care and use committee and were performed in accordance with institutional guidelines for animal care. Female BALB/c nu/nu mice (n=30) were used at 5-6 weeks of age. The animals were housed in laminar air-flow cabinets under pathogen-free conditions with a 12 h light/12 h dark schedule, and fed autoclaved standard chow and water ad libitum. The NCI-H460 human NSCL cell line was obtained from American Type Culture Collection (ATCC) and cells were grown in RPMI medium 1640 supplemented with 1 μM sodium pyruvate. Tumor cells (10^7 cells in 200 μl of HBSS) were injected subcutaneously into the right flanks of mice. After engraftment, tumor volume was measured by Vernier callipers, and calculated as described in Balsari A et al. (Balsari A et al. (2004) Eur J Cancer 40: 1275-1281). At tumor volume about 150 mm3, animals were randomized, and separated into five groups of five animals. Control mice (group 1) were intraperitoneally injected with vehicle (10% DMSO in buffer saline) every day. GS-0 was dissolved in vehicle and intraperitoneally injected (group 2) every day (12 injections). GS-1 was dissolved in vehicle and intraperitoneally injected (group 3) every day (12 injections). Tumor volume and body weight were measured every other day over the treatment period (12 days). GS-1 as well as the control peptide GS-0 were solubilized in DMSO and the resulting solutions were diluted 10 times with phosphate buffer saline (PBS) to obtain a concentration of 1 mg of peptide/ml of 10% DMSO in PBS. At this concentration, all peptides were soluble in 10% DMSO."}, "[3]": {"test": "Body weight and toxicity of mice bearing NCI-H460 tumors (Example 2)", "type": "in vivo", "description": "All experiments were reviewed by the Genopole's institutional animal care and use committee and were performed in accordance with institutional guidelines for animal care. Female BALB/c nu/nu mice (n=30) were used at 5-6 weeks of age. The animals were housed in laminar air-flow cabinets under pathogen-free conditions with a 12 h light/12 h dark schedule, and fed autoclaved standard chow and water ad libitum. […] Tumor cells (10^7 cells in 200 μl of HBSS) were injected subcutaneously into the right flanks of mice. […] At tumor volume about 150 mm3, animals were randomized, and separated into five groups of five animals. Control mice (group 1) were intraperitoneally injected with vehicle (10% DMSO in buffer saline) every day. GS-0 was dissolved in vehicle and intraperitoneally injected (group 2) every day (12 injections). GS-1 was dissolved in vehicle and intraperitoneally injected (group 3) every day (12 injections). Tumor volume and body weight were measured every other day over the treatment period (12 days)."}, "[4]": {"test": "Solubility of peptides in 10% DMSO in PBS", "type": "physicochemical", "settings": "1 mg of peptide/ml of 10% DMSO in PBS", "description": "GS-1 as well as the control peptide GS-0 were solubilized in DMSO and the resulting solutions were diluted 10 times with phosphate buffer saline (PBS) to obtain a concentration of 1 mg of peptide/ml of 10% DMSO in PBS. At this concentration, all peptides were soluble in 10% DMSO.\nGS-2 as well as the control peptide GS-0 were solubilized in DMSO and the resulting solutions were diluted 10 times with phosphate buffer saline (PBS) to obtain a concentration of 1 mg of peptide/ml of 10% DMSO in PBS. At this concentration, all peptides were soluble in 10% DMSO."}}, "note": "“Also recorded” adds a separate entry of the source. Where a SMILES comes first, the peptide text is derived from it. [ ]: non-standard residue; d: D form. pY = N[C@@H](Cc1ccc(OP(=O)(O)O)cc1)C(=O)O"}
{"molecule": "CSCC[C@H](NC(=O)[C@H](Cc1ccccc1)NC(=O)[C@H](CCSC)NC(=O)[C@H](Cc1ccc(OP(=O)(O)O)cc1)NC(=O)CNC(C)=O)C(=O)N[C@@H](CO)C(N)=O", "note": "[GS-1, GpYMFMS] (Ac-G[pY]MFMS-NH2)", "values": [{"measurement": "in vitro angiogenesis-inhibitory activity", "setting": "[1]", "value": "have in vitro angiogenesis-inhibitory activities"}, {"measurement": "influence onto the recruitment of the regulatory subunit (p85) of PI3K by IRS-1", "setting": "[2]", "value": "very strong inhibitory effects"}, {"measurement": "amounts of mTOR in HMEC relative to vehicle", "setting": "mTOR", "value": "much less amounts of mTOR"}, {"measurement": "influence on the in vivo growth of the tumor NCI-H460 (in words)", "setting": "NCI-H460 tumors; 8 mg/kg i.p. daily for 12 days", "value": "highly significant and potent influence; also recorded: statistically significant and potent anti-tumoral activity"}, {"measurement": "mean tumor volume at the end of treatment", "setting": "NCI-H460 tumors; 8 mg/kg i.p. daily for 12 days, n=5", "value": "234.98 ± 69.22", "unit": "mm^3"}, {"measurement": "Mean tumor volume D1", "setting": "NCI-H460 tumors; Table 2, 8 mg/kg i.p. daily, day 1", "value": 114, "unit": "mm³"}, {"measurement": "Mean tumor volume D3", "setting": "NCI-H460 tumors; Table 2, 8 mg/kg i.p. daily, day 3", "value": 133, "unit": "mm³"}, {"measurement": "Mean tumor volume D5", "setting": "NCI-H460 tumors; Table 2, 8 mg/kg i.p. daily, day 5", "value": 124, "unit": "mm³"}, {"measurement": "Mean tumor volume D7", "setting": "NCI-H460 tumors; Table 2, 8 mg/kg i.p. daily, day 7", "value": 141, "unit": "mm³"}, {"measurement": "Mean tumor volume D9", "setting": "NCI-H460 tumors; Table 2, 8 mg/kg i.p. daily, day 9", "value": 231, "unit": "mm³"}, {"measurement": "Mean tumor volume D11", "setting": "NCI-H460 tumors; Table 2, 8 mg/kg i.p. daily, day 11", "value": 334, "unit": "mm³"}, {"measurement": "Mean tumor volume D13", "setting": "NCI-H460 tumors; Table 2, 8 mg/kg i.p. daily, day 13", "value": 235, "unit": "mm³"}, {"measurement": "toxicity and body weight loss during treatment", "setting": "[3]; 8 mg/kg intraperitoneally every day, 12 injections", "value": "No toxicity and no body weight loss"}, {"measurement": "Mean body weight D1", "setting": "[3]; Table 1, 8 mg/kg i.p. daily, day 1, in g", "value": 23.58}, {"measurement": "Mean body weight D3", "setting": "[3]; Table 1, 8 mg/kg i.p. daily, day 3, in g", "value": 23.27}, {"measurement": "Mean body weight D5", "setting": "[3]; Table 1, 8 mg/kg i.p. daily, day 5, in g", "value": 20.69}, {"measurement": "Mean body weight D7", "setting": "[3]; Table 1, 8 mg/kg i.p. daily, day 7, in g", "value": 23.29}, {"measurement": "Mean body weight D9", "setting": "[3]; Table 1, 8 mg/kg i.p. daily, day 9, in g", "value": 23.72}, {"measurement": "Mean body weight D11", "setting": "[3]; Table 1, 8 mg/kg i.p. daily, day 11, in g", "value": 23.81}, {"measurement": "Mean body weight D13", "setting": "[3]; Table 1, 8 mg/kg i.p. daily, day 13, in g", "value": 23.48}, {"measurement": "solubility in 10% DMSO", "setting": "[4]", "value": "soluble"}]}
{"molecule": "DpYMTMQ (Ac-D[pY]MTMQ-NH2) [GS-3, tyrosine phosphorylated peptide]", "values": [{"measurement": "in vitro angiogenesis-inhibitory activity", "setting": "[1]", "value": "have in vitro angiogenesis-inhibitory activities"}]}
